Source: patent publication US6706663B2, “Herbicidal 3-heterocyclic substituted benzisothiazole and benzisoxazole compounds” (Wyeth, priority 2000, dated 2004)

How the values were obtained:
[1] = test system: GLXMAW (Soybean, Williams); assay: Postemergence herbicidal evaluation; assay type: in vivo, Glycine max, (L.) Merr. cv Williams; settings: rate 0.0620 kg/ha
Method: (§1) In the tests, seedling plants are grown in jiffy flats for about two weeks. […] After spraying, the plants are placed on greenhouse benches and are cared for in accordance with conventional greenhouse procedures. From four to five weeks after treatment, the seedling plants are examined and rated according to the rating system set forth below. Where more than one test is involved for a given compound, the data are averaged.
(§2) Results of herbicide evaluation are expressed on a rating scale (0-9). The scale is based upon a visual observation of plant stand, vigor, malformation, size, chlorosis and overall plant appearance as compared with a control.

[2] = test system: ABUTH (Abutilon theophrasti); assay: Postemergence herbicidal evaluation; assay type: in vivo, Medic.; settings: rate 0.0620 kg/ha
Method: as §1, §2

[3] = test system: SAGPY (Sagittaria pygmaea); assay: Flooded paddy, preemergence weed control; assay type: in vivo, L.; settings: rate 0.1250 kg/ha, rated 3-4 weeks after treatment, 0-9 rating scale
Method: as §2
(§3) Preemergence herbicidal activity under flooded paddy conditions is determined as follows: plant seeds or propagating organs are planted in the top 0.5 cm of silt loam soil in 32 oz. plastic containers with a diameter of 10.5 cm and no drainage holes. Water is added to these containers and maintained at 1.5 to 3 cm above the soil surface for the duration of the experiment. […] The treated containers are placed on greenhouse benches and cared for in accordance with conventional greenhouse procedures.

[4] = test system: TRZAWR (Wheat, Winter, cv Riband); assay: Postemergence herbicidal evaluation; assay type: in vivo, Triticum aestivum; settings: rate 0.0620 kg/ha
Method: as §1, §2

[5] = test system: ECHCG (Echinochloa crus-galli); assay: Postemergence herbicidal evaluation; assay type: in vivo, (L.) Beau; settings: rate 0.0620 kg/ha
Method: as §1, §2

ZEAMX (Corn, Field) [6] = assay: Preemergence herbicidal evaluation; assay type: in vivo, Zea mays, L.; settings: Rate 0.2500 kg/ha, rated 4-5 weeks after treatment
Text: as §2
(§4) The preemergence herbicidal activity of the test compounds of the present invention is exemplified by the following tests in which the seeds of a variety of monocotyledonous and dicotyledonous plants are separately mixed with potting soil and planted on top of approximately one inch of soil in separate pint cups. […] The treated cups are then placed on greenhouse benches, watered and cared for in accordance with conventional greenhouse procedures. From four to five weeks after treatment, the tests are terminated and each cup is examined and rated according to the rating system provided in Example 87. The plant species used and the compounds evaluated are the same as those shown in Example 87.

[7] = test system: IPOHE (Ipomoea hederacea); assay: Preemergence herbicidal evaluation; assay type: in vivo, (L.) Jacq.; settings: Rate 0.2500 kg/ha, rated 4-5 weeks after treatment
Text: as §2, §4

[8] = test system: IPOHE (Ipomoea hederacea); assay: Postemergence herbicidal evaluation; assay type: in vivo, (L.) Jacq.; settings: rate 0.0620 kg/ha
Method: as §1, §2

[9] = test system: CYPSE (Cyperus serotinus); assay: Flooded paddy, preemergence weed control; assay type: in vivo, Rottb.; settings: rate 0.1250 kg/ha, rated 3-4 weeks after treatment, 0-9 rating scale
Method: as §2
Preemergence herbicidal activity under flooded paddy conditions is determined as follows: plant seeds or propagating organs are planted in the top 0.5 cm of silt loam soil in 32 oz. plastic containers with a diameter of 10.5 cm and no drainage holes. Water is added to these containers and maintained at 1.5 to 3 cm above the soil surface for the duration of the experiment. The test compounds are applied as aqueous/acetone mixtures 50/50 v/v pipetted directly into the flood water to give the equivalent of about 0.0080 to 0.1250 kg/ha of active ingredient. The treated containers are placed on greenhouse benches and cared for in accordance with conventional greenhouse procedures. Three to four weeks after treatment, the test is terminated and each container is examined and herbicidal effect rated according to the rating system provided in Example 87.

[10] = test system: GLXMAW (Soybean, Williams); assay: Preemergence herbicidal evaluation; assay type: in vivo, Glycine max, (L.) Merr. cv Williams; settings: Rate 0.2500 kg/ha, rated 4-5 weeks after treatment
Text: as §2, §4

[11] = test system: CASOB (Cassia obtusifolia); assay: Postemergence herbicidal evaluation; assay type: in vivo, L.; settings: rate 0.0620 kg/ha
Method: as §1, §2

[12] = test system: AMBEL (Ambrosia artemisifolia); assay: Postemergence herbicidal evaluation; assay type: in vivo, L.; settings: rate 0.0620 kg/ha
Method: as §1, §2

CYPIR (Cyperus iria) = assay: Flooded paddy, preemergence weed control; assay type: in vivo; settings: rate 0.1250 kg/ha, rated 3-4 weeks after treatment, 0-9 rating scale
Method: as §2, §3

GALAP (Galium aparine) [13] = assay: Preemergence herbicidal evaluation; assay type: in vivo; settings: Rate 0.2500 kg/ha, rated 4-5 weeks after treatment
Text: as §2, §4

ZEAMX (Corn, Field) [14] = assay: Postemergence herbicidal evaluation; assay type: in vivo, Zea mays, L.; settings: rate 0.0620 kg/ha
Method: as §1, §2

[15] = test system: ECHCG (Echinochloa crus-galli); assay: Preemergence herbicidal evaluation; assay type: in vivo, (L.) Beau; settings: Rate 0.2500 kg/ha, rated 4-5 weeks after treatment
Text: as §2, §4

SETVI (Setaria viridis) [16] = assay: Preemergence herbicidal evaluation; assay type: in vivo, (L.) Beau; settings: Rate 0.2500 kg/ha, rated 4-5 weeks after treatment
Text: as §2, §4

ORYSAT (Rice, Tebonnet) [17] = assay: Preemergence herbicidal evaluation; assay type: in vivo, Oryza sativa, (L.) Tebonnet; settings: Rate 0.2500 kg/ha, rated 4-5 weeks after treatment
Text: as §2, §4

ORYSAT (Rice, Tebonnet) [18] = assay: Postemergence herbicidal evaluation; assay type: in vivo, Oryza sativa, (L.) Tebonnet; settings: rate 0.0620 kg/ha
Method: as §1, §2

SETVI (Setaria viridis) [19] = assay: Postemergence herbicidal evaluation; assay type: in vivo, (L.) Beau; settings: rate 0.0620 kg/ha
Method: In the tests, seedling plants are grown in jiffy flats for about two weeks. The test compounds are dispersed in 50/50 acetone/water mixtures containing 0.5% TWEEN® 20, a polyoxyethylene sorbitan monolaurate surfactant of Atlas Chemical Industries, in sufficient quantities to provide the equivalent of about 0.0040 kg to 1.000 kg per hectare of active compound when applied to the plants through a spray nozzle operating at 40 psi for a predetermined time. After spraying, the plants are placed on greenhouse benches and are cared for in accordance with conventional greenhouse procedures. From four to five weeks after treatment, the seedling plants are examined and rated according to the rating system set forth below. Where more than one test is involved for a given compound, the data are averaged.
as §2

GALAP (Galium aparine) [20] = assay: Postemergence herbicidal evaluation; assay type: in vivo; settings: rate 0.0620 kg/ha
Method: as §1, §2

[21] = test system: CASOB (Cassia obtusifolia); assay: Preemergence herbicidal evaluation; assay type: in vivo, L.; settings: Rate 0.2500 kg/ha, rated 4-5 weeks after treatment
Text: as §2, §4

[22] = test system: CHEAL (Chenopodium album); assay: Preemergence herbicidal evaluation; assay type: in vivo, L.; settings: Rate 0.2500 kg/ha, rated 4-5 weeks after treatment
Text: as §2, §4

[23] = test system: AMBEL (Ambrosia artemisifolia); assay: Preemergence herbicidal evaluation; assay type: in vivo, L.; settings: Rate 0.2500 kg/ha, rated 4-5 weeks after treatment
Text: as §2, §4

[24] = test system: ECHORC (Echinochloa oryzoides); assay: Flooded paddy, preemergence weed control; assay type: in vivo, Echinochloa oryzoides (Ard.) Fritsch.; settings: rate 0.1250 kg/ha, rated 3-4 weeks after treatment, 0-9 rating scale
Method: as §2, §3

ORYSAT (Rice, Tebonnet) [25] = assay: Flooded paddy, post-transplant rice tolerance; assay type: in vivo, Oryza sativa, (L.) Tebonnet
Method: as §2
The tolerance of transplanted rice to post-transplanted herbicide application is determined as follows: two ten-day-old rice seedlings (cv. Tebonnet) are transplanted into silt loam soil in 32 oz. plastic containers with a diameter of 10.5 cm and no drainage holes. After transplanting, the containers are flooded and the water level is maintained at 1.5 to 3 cm above the soil surface. […] The treated containers are placed on greenhouse benches, watered such that the water level is maintained as stated above, and cared for in accordance with conventional greenhouse procedures.

[26] = test system: TRZAWR (Wheat, Winter, cv Riband); assay: Preemergence herbicidal evaluation; assay type: in vivo, Triticum aestivum; settings: Rate 0.2500 kg/ha, rated 4-5 weeks after treatment
Text: as §2, §4

[27] = test system: ABUTH (Abutilon theophrasti); assay: Preemergence herbicidal evaluation; assay type: in vivo, Medic.; settings: Rate 0.2500 kg/ha, rated 4-5 weeks after treatment
Text: as §2, §4

[28] = test system: MOOVA (Monochoria vaginalis); assay: Flooded paddy, preemergence weed control; assay type: in vivo, Presl.; settings: rate 0.1250 kg/ha, rated 3-4 weeks after treatment, 0-9 rating scale
Method: as §2, §3

[29] = test system: CHEAL (Chenopodium album); assay: Postemergence herbicidal evaluation; assay type: in vivo, L.; settings: postemergence, rate 0.0620 kg/ha
Method: as §1, §2

Cn1c(C(F)(F)F)cc(=O)n(-c2ccc3c(c2)C(c2cccc[n+]2[O-])=NS3(=O)=O)c1=O [Compound 15, 1-methyl-3-[3-(2-pyridyl)-1,2-benzisothiazol-5-yl]-6-(trifluoromethyl)uracil N′,S,S-trioxide]
Postemergence herbicidal rating, GLXMAW [1]: 5.0
Postemergence herbicidal rating, ABUTH [2]: 6.0
herbicidal rating, SAGPY [3]: 0.0
Postemergence herbicidal rating, TRZAWR [4]: 3.5
Postemergence herbicidal rating, ECHCG [5]: 1.0
ZEAMX preemergence herbicidal rating (ZEAMX (Corn, Field) [6]; preemergence): 1.0
IPOHE preemergence herbicidal rating ([7]; preemergence): 6.0
Postemergence herbicidal rating, IPOHE [8]: 9.0
herbicidal rating, CYPSE [9]: 0.0
GLXMAW preemergence herbicidal rating ([10]; preemergence): 2.0
Postemergence herbicidal rating, CASOB [11]: 1.0
Postemergence herbicidal rating, AMBEL [12]: 9.0
herbicidal rating, CYPIR (CYPIR (Cyperus iria)): 0.0
GALAP preemergence herbicidal rating (GALAP (Galium aparine) [13]; preemergence): 0.0
Postemergence herbicidal rating, ZEAMX (ZEAMX (Corn, Field) [14]): 5.0
ECHCG preemergence herbicidal rating ([15]; preemergence): 5.0
SETVI preemergence herbicidal rating (SETVI (Setaria viridis) [16]; preemergence): 5.0
ORYSAT preemergence herbicidal rating (ORYSAT (Rice, Tebonnet) [17]; preemergence): 3.0
Postemergence herbicidal rating, ORYSAT (ORYSAT (Rice, Tebonnet) [18]): 3.5
Postemergence herbicidal rating, SETVI (SETVI (Setaria viridis) [19]): 1.0
Postemergence herbicidal rating, GALAP (GALAP (Galium aparine) [20]): 1.0
CASOB preemergence herbicidal rating ([21]; preemergence): 0.0
CHEAL preemergence herbicidal rating ([22]; preemergence): 9.0
AMBEL preemergence herbicidal rating ([23]; preemergence): 7.0
herbicidal rating, ECHORC [24]: 0.0
herbicidal rating, ORYSAT (rice tolerance) (ORYSAT (Rice, Tebonnet) [25]; in vivo): 0.0
TRZAWR preemergence herbicidal rating ([26]; preemergence): 3.0
ABUTH preemergence herbicidal rating ([27]; preemergence): 7.0

Cn1c(C(F)(F)F)cc(=O)n(-c2ccc3snc(C4OCC(CBr)O4)c3c2)c1=O (stereo not drawn) [Compound 79, 3-[3-[4-(bromomethyl)-1,3-dioxolan-2-yl]-1,2-benzisothiazol-5-yl]-1-methyl-6-(trifluoromethyl)uracil]
GLXMAW herbicidal rating ([1]; postemergence): 6.0
ABUTH herbicidal rating ([2]; postemergence): 9.0
herbicidal rating, SAGPY [3]: 3.0
TRZAWR herbicidal rating ([4]; postemergence): 2.5
herbicidal rating, MOOVA [28]: 9.0
ECHCG herbicidal rating ([5]; postemergence): 4.0
Preemergence herbicidal rating ZEAMX (ZEAMX (Corn, Field) [6]): 7.0
Preemergence herbicidal rating IPOHE [7]: 7.0
IPOHE herbicidal rating ([8]; postemergence): 8.0
Preemergence herbicidal rating GLXMAW [10]: 9.0
CASOB herbicidal rating ([11]; postemergence): 6.0
CHEAL herbicidal rating [29]: 9.0
AMBEL herbicidal rating ([12]; postemergence): 9.0
herbicidal rating, CYPIR (CYPIR (Cyperus iria)): 9.0
Preemergence herbicidal rating GALAP (GALAP (Galium aparine) [13]): 9.0
ZEAMX herbicidal rating (ZEAMX (Corn, Field) [14]; postemergence): 3.5
Preemergence herbicidal rating ECHCG [15]: 9.0
Preemergence herbicidal rating SETVI (SETVI (Setaria viridis) [16]): 9.0
Preemergence herbicidal rating ORYSAT (ORYSAT (Rice, Tebonnet) [17]): 8.0
ORYSAT herbicidal rating (ORYSAT (Rice, Tebonnet) [18]; postemergence): 3.5
SETVI herbicidal rating (SETVI (Setaria viridis) [19]; postemergence): 6.0
GALAP herbicidal rating (GALAP (Galium aparine) [20]; postemergence): 4.0
Preemergence herbicidal rating CASOB [21]: 9.0
Preemergence herbicidal rating CHEAL [22]: 9.0
Preemergence herbicidal rating AMBEL [23]: 9.0
herbicidal rating, ECHORC [24]: 9.0
herbicidal rating, ORYSAT (rice tolerance) (ORYSAT (Rice, Tebonnet) [25]; flooded paddy, post-transplant rice, rate 0.1250 kg/ha, rated 3-4 weeks after treatment, 0-9 rating scale): 7.0
Preemergence herbicidal rating TRZAWR [26]: 8.0
Preemergence herbicidal rating ABUTH [27]: 9.0
